Reference: PubChem BioAssay (NCI)
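The compound was tested at five concentrations on cells cultured in 96-well plates, with a 48-hour exposure period. Abbreviation: GI50, concentration required for 50% inhibition of growth. TGI denotes the concentration required for complete inhibition of growth.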

Columns and labels:
Experiment in all cases: growth of human tumour cells (NCI), 48 h; in the data active = GI50 below about 0.43 µM; inactive = the rest
786-0 renal = test system: 786-0 renal
A498 renal = test system: A498 renal
A549 NSCLC = test system: A549 NSCLC
ACHN renal = test system: ACHN renal
BT-549 breast = test system: BT-549 breast
CAKI-1 renal = test system: CAKI-1 renal
CCRF-CEM leukemia = test system: CCRF-CEM leukemia
DU-145 prostate = test system: DU-145 prostate
EKVX NSCLC = test system: EKVX NSCLC
HCC-2998 colon = test system: HCC-2998 colon
HCT-116 colon = test system: HCT-116 colon
HCT-15 colon = test system: HCT-15 colon
HL-60(TB) leukemia = test system: HL-60(TB) leukemia
HOP-62 NSCLC = test system: HOP-62 NSCLC
HOP-92 NSCLC = test system: HOP-92 NSCLC
HS 578T breast = test system: HS 578T breast
HT29 colon = test system: HT29 colon
IGROV1 ovarian = test system: IGROV1 ovarian
K-562 leukemia = test system: K-562 leukemia
KM12 colon = test system: KM12 colon
LOX IMVI melanoma = test system: LOX IMVI melanoma
M14 melanoma = test system: M14 melanoma
MALME-3M melanoma = test system: MALME-3M melanoma
MCF7 breast = test system: MCF7 breast
MDA-MB-231 breast = test system: MDA-MB-231 breast
MDA-MB-435 = test system: MDA-MB-435
MOLT-4 leukemia = test system: MOLT-4 leukemia
NCI-H226 lung = test system: NCI-H226 lung
NCI-H23 lung = test system: NCI-H23 lung
NCI-H460 lung = test system: NCI-H460 lung
NCI-H522 lung = test system: NCI-H522 lung
NCI/ADR-RES ovarian = test system: NCI/ADR-RES ovarian
OVCAR-3 ovarian = test system: OVCAR-3 ovarian
OVCAR-4 ovarian = test system: OVCAR-4 ovarian
OVCAR-5 ovarian = test system: OVCAR-5 ovarian
OVCAR-8 ovarian = test system: OVCAR-8 ovarian
PC-3 prostate = test system: PC-3 prostate
RPMI-8226 leukemia = test system: RPMI-8226 leukemia
RXF 393 renal = test system: RXF 393 renal
SF-268 CNS = test system: SF-268 CNS
SF-295 CNS = test system: SF-295 CNS
SF-539 CNS = test system: SF-539 CNS
SK-MEL-2 melanoma = test system: SK-MEL-2 melanoma
SK-MEL-28 melanoma = test system: SK-MEL-28 melanoma
SK-MEL-5 melanoma = test system: SK-MEL-5 melanoma
SK-OV-3 ovarian = test system: SK-OV-3 ovarian
SN12C renal = test system: SN12C renal
SNB-19 CNS = test system: SNB-19 CNS
SNB-75 CNS = test system: SNB-75 CNS
SW-620 colon = test system: SW-620 colon
TK-10 renal = test system: TK-10 renal
U251 CNS = test system: U251 CNS
UACC-257 melanoma = test system: UACC-257 melanoma
UACC-62 melanoma = test system: UACC-62 melanoma
UO-31 renal = test system: UO-31 renal
COLO 205 colon = test system: COLO 205 colon
SR leukemia = test system: SR leukemia
T-47D breast = test system: T-47D breast

C=CC(=O)N1CCC(CNc2ncnc(N)c2-c2ccc(Oc3ccccc3)cc2)CC1
79.4 µM: TGI (NCI/ADR-RES ovarian)
65.1 µM: TGI (HOP-92 NSCLC)
31.9 µM: TGI (A498 renal)
35.8 µM: TGI (IGROV1 ovarian)
71 µM: TGI (SF-539 CNS)
70 µM: TGI (SK-OV-3 ovarian)
58.9 µM: TGI (SNB-75 CNS)
46.7 µM: TGI (HCC-2998 colon)
27.6 µM: TGI (SK-MEL-5 melanoma)
70.7 µM: TGI (ACHN renal)
46.4 µM: TGI (HL-60(TB) leukemia)
> 100 µM: TGI (A549 NSCLC) | TGI (CAKI-1 renal) | TGI (CCRF-CEM leukemia) | TGI (DU-145 prostate) | TGI (EKVX NSCLC) | TGI (HCT-116 colon) | TGI (HCT-15 colon) | TGI (HT29 colon) | TGI (K-562 leukemia) | TGI (KM12 colon) | TGI (M14 melanoma) | TGI (MCF7 breast) | TGI (NCI-H23 lung) | TGI (NCI-H460 lung) | TGI (OVCAR-4 ovarian) | TGI (OVCAR-5 ovarian) | TGI (OVCAR-8 ovarian) | TGI (PC-3 prostate) | TGI (SF-268 CNS) | TGI (SF-295 CNS) | TGI (SK-MEL-28 melanoma) | TGI (SN12C renal) | TGI (SNB-19 CNS) | TGI (SW-620 colon) | TGI (TK-10 renal) | TGI (U251 CNS) | TGI (UACC-257 melanoma)
89 µM: TGI (MDA-MB-231 breast)
85.1 µM: TGI (NCI-H226 lung) | TGI (OVCAR-3 ovarian)
33.2 µM: TGI (LOX IMVI melanoma)
32.5 µM: TGI (NCI-H522 lung)
inactive: GI50 (786-0 renal) 17.7 µM | GI50 (A498 renal) 10.7 µM | GI50 (A549 NSCLC) 34.3 µM | GI50 (ACHN renal) 23.4 µM | GI50 (BT-549 breast) 20.3 µM | GI50 (CAKI-1 renal) 22.5 µM | GI50 (CCRF-CEM leukemia) 27.2 µM | GI50 (DU-145 prostate) 32.9 µM | GI50 (EKVX NSCLC) 24.1 µM | GI50 (HCC-2998 colon) 21 µM | GI50 (HCT-116 colon) 30.1 µM | GI50 (HCT-15 colon) 26.6 µM | GI50 (HL-60(TB) leukemia) 19.9 µM | GI50 (HOP-62 NSCLC) 25.8 µM | GI50 (HOP-92 NSCLC) 18.8 µM | GI50 (HS 578T breast) 24 µM | GI50 (HT29 colon) 30.7 µM | GI50 (IGROV1 ovarian) 8.51 µM | GI50 (K-562 leukemia) 22.5 µM | GI50 (KM12 colon) 28.7 µM | GI50 (LOX IMVI melanoma) 16.3 µM | GI50 (M14 melanoma) 31.6 µM | GI50 (MALME-3M melanoma) 23.9 µM | GI50 (MCF7 breast) 23.4 µM | GI50 (MDA-MB-231 breast) 25.5 µM | GI50 (MDA-MB-435) 27.9 µM | GI50 (MOLT-4 leukemia) 18.6 µM | GI50 (NCI-H226 lung) 19.5 µM | GI50 (NCI-H23 lung) 29.8 µM | GI50 (NCI-H460 lung) 34.8 µM | GI50 (NCI-H522 lung) 10.4 µM | GI50 (NCI/ADR-RES ovarian) 24.6 µM | GI50 (OVCAR-3 ovarian) 27.6 µM | GI50 (OVCAR-4 ovarian) 24.1 µM | GI50 (OVCAR-5 ovarian) 46.7 µM | GI50 (OVCAR-8 ovarian) 27.5 µM | GI50 (PC-3 prostate) 24.9 µM | GI50 (RPMI-8226 leukemia) 15.1 µM | GI50 (RXF 393 renal) 22.4 µM | GI50 (SF-268 CNS) 26.6 µM | GI50 (SF-295 CNS) 29 µM | GI50 (SF-539 CNS) 20.6 µM | GI50 (SK-MEL-2 melanoma) 19.3 µM | GI50 (SK-MEL-28 melanoma) 34.4 µM | GI50 (SK-MEL-5 melanoma) 14.3 µM | GI50 (SK-OV-3 ovarian) 18 µM | GI50 (SN12C renal) 25.2 µM | GI50 (SNB-19 CNS) 32.8 µM | GI50 (SNB-75 CNS) 13.4 µM | GI50 (SW-620 colon) 33.5 µM | GI50 (TK-10 renal) 21.4 µM | GI50 (U251 CNS) 25.7 µM | GI50 (UACC-257 melanoma) 38.5 µM | GI50 (UACC-62 melanoma) 16 µM | GI50 (UO-31 renal) 8.63 µM
66 µM: TGI (MOLT-4 leukemia)
49.2 µM: TGI (UO-31 renal)
42 µM: TGI (SK-MEL-2 melanoma)
85.2 µM: TGI (RXF 393 renal)
70.1 µM: TGI (BT-549 breast)
67 µM: TGI (MALME-3M melanoma)
97.5 µM: TGI (MDA-MB-435)
92.9 µM: TGI (786-0 renal)
34.8 µM: TGI (UACC-62 melanoma)
82.6 µM: TGI (HOP-62 NSCLC)
95.2 µM: TGI (HS 578T breast)
42.6 µM: TGI (RPMI-8226 leukemia)

O=C1Nc2cc(-c3ccc(O)cc3)ccc2/C1=C/c1ccc[nH]1
> 25 µM: TGI (OVCAR-5 ovarian)
> 51.3 µM: TGI (OVCAR-4 ovarian)
2.06 µM: TGI (UO-31 renal)
inactive: GI50 (A498 renal) 1.53 µM | GI50 (A549 NSCLC) 0.484 µM | GI50 (COLO 205 colon) 2.78 µM | GI50 (DU-145 prostate) 0.815 µM | GI50 (HCC-2998 colon) 0.511 µM | GI50 (HOP-62 NSCLC) 0.559 µM | GI50 (HOP-92 NSCLC) 1.14 µM | GI50 (HT29 colon) 0.979 µM | GI50 (MALME-3M melanoma) 0.474 µM | GI50 (NCI-H226 lung) 0.673 µM | GI50 (OVCAR-5 ovarian) 0.588 µM | GI50 (OVCAR-8 ovarian) 0.524 µM | GI50 (RPMI-8226 leukemia) 0.486 µM | GI50 (RXF 393 renal) 0.826 µM | GI50 (SF-268 CNS) 0.44 µM | GI50 (SK-MEL-2 melanoma) 0.647 µM | GI50 (SN12C renal) 0.609 µM | GI50 (SNB-19 CNS) 1.06 µM | GI50 (SNB-75 CNS) 2.08 µM | GI50 (U251 CNS) 0.526 µM | GI50 (UACC-257 melanoma) 0.743 µM
> 75.9 µM: TGI (K-562 leukemia)
> 20.3 µM: TGI (RPMI-8226 leukemia)
> 35.3 µM: TGI (HCT-15 colon)
7.22 µM: TGI (IGROV1 ovarian)
12.5 µM: TGI (COLO 205 colon)
9.77 µM: TGI (LOX IMVI melanoma)
> 32.5 µM: TGI (MOLT-4 leukemia)
5.05 µM: TGI (A498 renal)
> 33.8 µM: TGI (HT29 colon)
> 20.1 µM: TGI (NCI-H522 lung)
2.81 µM: TGI (NCI-H23 lung)
> 40.5 µM: TGI (SF-295 CNS)
10.9 µM: TGI (UACC-62 melanoma)
5.28 µM: TGI (MALME-3M melanoma)
5.12 µM: TGI (HOP-92 NSCLC)
4.04 µM: TGI (786-0 renal)
2.45 µM: TGI (RXF 393 renal)
> 36.4 µM: TGI (DU-145 prostate)
> 100 µM: TGI (A549 NSCLC) | TGI (CCRF-CEM leukemia) | TGI (HCC-2998 colon) | TGI (HCT-116 colon) | TGI (HOP-62 NSCLC) | TGI (KM12 colon) | TGI (M14 melanoma) | TGI (MDA-MB-435) | TGI (NCI-H226 lung) | TGI (NCI/ADR-RES ovarian) | TGI (OVCAR-8 ovarian) | TGI (SF-268 CNS) | TGI (SK-MEL-28 melanoma) | TGI (SK-MEL-5 melanoma) | TGI (SN12C renal) | TGI (SNB-19 CNS) | TGI (SW-620 colon) | TGI (U251 CNS) | TGI (UACC-257 melanoma)
3.99 µM: TGI (OVCAR-3 ovarian)
8.35 µM: TGI (SNB-75 CNS)
active: GI50 (786-0 renal) 0.396 µM | GI50 (ACHN renal) 0.0504 µM | GI50 (BT-549 breast) 0.396 µM | GI50 (CAKI-1 renal) 0.0435 µM | GI50 (CCRF-CEM leukemia) 0.154 µM | GI50 (HCT-116 colon) 0.115 µM | GI50 (HCT-15 colon) 0.0451 µM | GI50 (HL-60(TB) leukemia) 0.228 µM | GI50 (IGROV1 ovarian) 0.327 µM | GI50 (K-562 leukemia) 0.0335 µM | GI50 (KM12 colon) 0.247 µM | GI50 (LOX IMVI melanoma) 0.0481 µM | GI50 (M14 melanoma) 0.0974 µM | GI50 (MDA-MB-231 breast) 0.154 µM | GI50 (MDA-MB-435) 0.0708 µM | GI50 (MOLT-4 leukemia) 0.158 µM | GI50 (NCI-H23 lung) 0.0859 µM | GI50 (NCI-H522 lung) 0.258 µM | GI50 (NCI/ADR-RES ovarian) 0.251 µM | GI50 (OVCAR-3 ovarian) 0.348 µM | GI50 (OVCAR-4 ovarian) 0.302 µM | GI50 (PC-3 prostate) 0.416 µM | GI50 (SF-295 CNS) 0.266 µM | GI50 (SF-539 CNS) 0.246 µM | GI50 (SK-MEL-28 melanoma) 0.402 µM | GI50 (SK-MEL-5 melanoma) 0.412 µM | GI50 (SR leukemia) 0.0309 µM | GI50 (SW-620 colon) 0.0746 µM | GI50 (T-47D breast) 0.0591 µM | GI50 (TK-10 renal) 0.418 µM | GI50 (UACC-62 melanoma) 0.049 µM | GI50 (UO-31 renal) 0.13 µM
3.6 µM: TGI (ACHN renal)
> 25.7 µM: TGI (SK-MEL-2 melanoma)
1.53 µM: TGI (SF-539 CNS)
> 25.8 µM: TGI (PC-3 prostate)
3.59 µM: TGI (CAKI-1 renal)
> 33.7 µM: TGI (SR leukemia)
13.3 µM: TGI (BT-549 breast)
6.66 µM: TGI (MDA-MB-231 breast)
> 71.9 µM: TGI (TK-10 renal)
